Results taken from patent publication US20040229880A1, “4-[(2,4-dichloro-5-methoxyphenyl)amino]-6-alkoxy-3-quinolinecarbonitriles for the treatment of ischemic injury” (Wyeth, priority 2003, published 2004).

Experiments:
[1] = test system: Rat2 fibroblasts stably transformed with v-Src/Hu c-Src fusion gene; assay: Anchorage Independent Src-transformed Fibroblast Proliferation Assay; assay type: cell-based; conditions: Rattus norvegicus, src dependent suspension growth, MTS, read-out: Src cells IC50
[2] = test system: transient focal ischemia; assay: IP administration in rat model of transient focal ischemia (90 min MCA occlusion, 48 h reperfusion); assay type: in vivo, Wistar rats; conditions: for recovery from stroke-induced neurological deficits: 85 min after onset of ischemia, evaluated over 48 hours
Protocol: Wistar rats were subjected to a 90 min occlusion of the middle cerebral artery (MCA) using an intraluminal suture approach as described by Longa et al., Stroke 1989, 20:84 followed by reperfusion for 48 hours. […] Following reperfusion, the animals were evaluated over a 48 hour period for neurological function deficit and weight loss/gain. Infarct size was measured following sacrifice at 48 hours post MCA occlusion.

[3] = test system: transient focal ischemia; assay: IV administration in rat model of transient focal ischemia (90 min MCA occlusion, 48 h reperfusion); assay type: in vivo, Wistar rats
Protocol: Following reperfusion, the animals were evaluated over a 48 hour period for neurological function deficit and weight loss/gain. Brain tissue infarction volume by were reduced by 22%, 53% and 42%, respectively. […] Thus, compounds of the present invention provide neuroprotection following focal ischemia.

[4] = test system: transient focal ischemia; assay: Therapeutic window in transient focal ischemia model; assay type: in vivo, Wistar rats
Protocol: Therapeutic Window In this model of transient focal ischemia three studies were conducted to examine therapeutic window. Wistar rats were subjected to 90 minute occlusion of the MCA followed by reperfusion as described above. […] Volume of infarcted tissue was measured by histological staining.

[5] = test system: vascular permeability in the ischemic striatum; assay: Post ischemic vascular permeability (Evans Blue extravasation); assay type: in vivo, Wistar rats; conditions: single IV bolus 30 min after onset of ischemia at 3, 10 and 30 mg/kg (dose of the value not stated), 24 hours reperfusion
Protocol: Post Ischemic Vascular Permeability Wistar rats were subjected to a 90 min occlusion of the middle cerebral artery (MCA) using an intraluminal suture approach as described by Longa et al., Stroke 1989, 20:84 followed by reperfusion for 24 hours. […] Two hours before sacrifice animals received an IV injection of 2% Evans Blue in saline. Brains were perfused with saline and the striatum dissected. Evans Blue was extracted and quantified by spectrofluorometer based on external standards. Vascular permeability in the ischemic striatum was reduced as evidenced by a 60% decrease of Evans Blue extravasation. Thus, compounds of the present invention reduce vascular permeability associated with ischemic injury.

[6] = test system: permanent focal ischemia; assay: Permanent focal ischemia, model of extreme severity (intraluminal suture occlusion of internal carotid artery); assay type: in vivo, rat; conditions: relatively short outcome (28 hours)
Protocol: Permanent Focal Ischemia Example 1 was also evaluated in two rat models of permanent focal ischemia.

[7] = test system: permanent focal ischemia; assay: Permanent focal ischemia with extensive infarction to sensorimotor cortex, 21 day neurological assessment; assay type: in vivo, Wistar rats; conditions: IV bolus 10 mg/kg at 90 min, 4 hours later, and 24 and 28 hours later (total 40 mg/kg); Day 21
Protocol: Wistar rats (n=5 per group) were subjected to focal ischemic stroke model that results in a extensive ischemia to the sensorimotor cortex substantially as described by Chen et al., (Stroke 17:738, 1986). […] Results were evaluated by Generalized Regression Model to determine statistical significance of the differences between slopes and to compare final neurological outcome after 21 days. […] Thus, compounds of the present invention provide long-term improvement of neurological deficits.

[8] = biological target: T1, Src (Homo sapiens, UniProt P12931); assay: Src Kinase Assay (ELISA or Delfia format, cdc2 substrate peptide); assay type: biochemical; conditions: read-out: Src enzyme IC50
T1 construct: purchased Upstate Biotechnologies, Lake Placid, N.Y
T1 sequence (P12931 whole entry): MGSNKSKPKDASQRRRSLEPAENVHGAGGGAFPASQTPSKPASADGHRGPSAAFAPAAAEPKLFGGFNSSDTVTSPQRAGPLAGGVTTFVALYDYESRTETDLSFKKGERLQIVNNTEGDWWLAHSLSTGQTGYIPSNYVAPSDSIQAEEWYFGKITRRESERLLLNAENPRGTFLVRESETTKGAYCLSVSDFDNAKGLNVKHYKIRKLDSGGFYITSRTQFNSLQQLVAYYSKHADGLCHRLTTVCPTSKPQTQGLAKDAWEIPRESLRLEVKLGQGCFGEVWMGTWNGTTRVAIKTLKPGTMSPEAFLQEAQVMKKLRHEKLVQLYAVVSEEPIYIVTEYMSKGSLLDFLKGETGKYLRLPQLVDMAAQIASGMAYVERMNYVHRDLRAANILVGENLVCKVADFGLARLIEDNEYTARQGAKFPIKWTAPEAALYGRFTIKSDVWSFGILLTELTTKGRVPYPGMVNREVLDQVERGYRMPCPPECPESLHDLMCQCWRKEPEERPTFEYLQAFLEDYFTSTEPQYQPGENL

With COc1cc(Nc2c(C#N)cnc3cc(OCCCN4CCN(C)CC4)c(OC)cc23)c(Cl)cc1Cl [Example 1, 4-[(2,4-Dichloro-5-methoxyphenyl)amino]-6-methoxy-7-[3-(4-methyl-1-piperazinyl)propoxy]-3-quinolinecarbonitrile] the IC50 [1] was 100 nM, the “recovery from stroke-induced neurological deficits” value ([2]; 5 mg/kg ip) was “significantly improved” and the “recovery from stroke-induced neurological deficits” value ([2]; 45 mg/kg ip) was “significantly improved”. For the same compound, the “volume of infarcted brain tissue, statistical significance of reduction” value ([2]; 45 mg/kg ip, 48 hours post MCA occlusion) was “statistical significance was achieved”, the body weight recovery ([2]; ip, over 48 hours) was “Improvement in body weight recovery was observed” and the “volume of infarcted brain tissue” value ([2]; most doses (1.5, 5, 15, or 45 mg/kg ip), 48 hours post MCA occlusion) was “Reductions in the volume of infarcted brain tissue were observed”. For the same compound, the “Mean Motor Deficit Score at 24 hrs” value ([3]; 3 mg/kg iv) was 3.83 ± 0.3, the “Mean Motor Deficit Score at 48 hrs” value ([3]; 3 mg/kg iv) was 3.25 ± 0.37 and the “Brain tissue infarction volume reduced by” value ([3]; 3 mg/kg iv, 30 min after MCA occlusion) was 22%. The “Mean Motor Deficit Score at 24 hrs” value ([3]; 10 mg/kg iv) was 4.08 ± 0.08, the “Mean Motor Deficit Score at 48 hrs” value ([3]; 10 mg/kg iv) was 3.67 ± 0.22 and the “Brain tissue infarction volume reduced by” value ([3]; 10 mg/kg iv, 30 min after MCA occlusion) was 53%. For the same compound, the “Mean Motor Deficit Score at 24 hrs” value ([3]; 30 mg/kg iv) was 4.08 ± 0.23, the “Mean Motor Deficit Score at 48 hrs” value ([3]; 30 mg/kg iv) was 3.67 ± 0.28 and the “Brain tissue infarction volume reduced by” value ([3]; 30 mg/kg iv, 30 min after MCA occlusion) was 42%. For the same compound, the stroke-induced neurological deficits ([3]; all three doses (3, 10 and 30 mg/kg iv)) was “significantly reduced”, the Post-stroke weight loss ([3]; iv, 30 min after MCA occlusion) was “significantly reduced” and the “Brain tissue infarction (as a % of vehicle treated)” value ([4]; single 10 mg/kg dose administered between 30 min and 4 hours after the ischemic injury) was “statistically reduced”. For the same compound, the “protection from neurological deficits (as a percent of vehicle treated)” value ([4]; single 10 mg/kg dose administered up to 5 hours post-stroke) was “Statistically significant protection”, the “protection from ischemia-induced weight loss (as a % of vehicle treated)” value ([4]; single 10 mg/kg dose up to 5 hours post stroke) was “statistically significant protection” and the “decrease of Evans Blue extravasation in the ischemic striatum” value [5] was 60%. For the same compound, the “effect in permanent focal ischemia model of extreme severity” value [6] was “little or no effect” and the “Behavioral Score (sensorimotor deficits) as compared to a control group” value [7] was “statistically significant improvement”.
Compound CCN1CCN(CCCOc2cc3ncc(C#N)c(Nc4cc(OC)c(Cl)cc4Cl)c3cc2OC)CC1 [Example 2, 4-[(2,4-Dichloro-5-methoxyphenyl)amino]-7-[3-(4-ethyl-1-piperazinyl)propoxy]-6-methoxy-3-quinolinecarbonitrile] has an IC50 [1] of 130 nM.
COc1cc(Nc2c(C#N)cnc3cc(OCCN4CCN(C)CC4)c(OC)cc23)c(Cl)cc1Cl [Example 3, 4-[(2,4-Dichloro-5-methoxyphenyl)amino]-6-methoxy-7-[2-(4-methyl-1-piperazinyl)ethoxy]-3-quinolinecarbonitrile] showed an IC50 [8] of 4 nM, an IC50 [1] of 380 nM and a melting point of 165 to 167 °C.
CCN1CCN(CCOc2cc3ncc(C#N)c(Nc4cc(OC)c(Cl)cc4Cl)c3cc2OC)CC1 [Example 4, 4-[(2,4-Dichloro-5-methoxyphenyl)amino]-7-[2-(4-ethyl-1-piperazinyl)ethoxy]-6-methoxy-3-quinolinecarbonitrile] showed an IC50 [8] of 3.6 nM, an IC50 [1] of 600 nM and a melting point of 101 to 105 °C.
In the case of CCN1CCC(COc2cc3ncc(C#N)c(Nc4cc(OC)c(Cl)cc4Cl)c3cc2OC)CC1 [Example 8, 4-[(2,4-Dichloro-5-methoxyphenyl)amino]-7-[(1-ethylpiperidin-4-yl)methoxy]-6-methoxyquinoline-3-carbonitrile], the IC50 [8] is reported as 2.1 nM, the IC50 [1] is reported as 170 nM and the melting point is reported as 192 to 195 °C.
Compound CCOc1cc2c(Nc3cc(OC)c(Cl)cc3Cl)c(C#N)cnc2cc1OCCCN1CCN(C)CC1 [Example 9, 4-[(2,4-Dichloro-5-methoxyphenyl)amino]-6-ethoxy-7-[3-(4-methylpiperazin-1-yl)propoxy]quinoline-3-carbonitrile] has an IC50 [1] of 86 nM and a melting point of 137 to 138 °C.
Compound CCOc1cc2c(Nc3cc(OC)c(Cl)cc3Cl)c(C#N)cnc2cc1OCC1CCN(C)CC1 [Example 10, 4-[(2,4-Dichloro-5-methoxyphenyl)amino]-6-ethoxy-7-[(1-methylpiperidin-4-yl)methoxy]quinoline-3-carbonitrile] has an IC50 [8] of 2.1 nM, an IC50 [1] of 176 nM and a melting point of 182 to 186 °C.
In the case of CCOc1cc2c(Nc3cc(OC)c(Cl)cc3Cl)c(C#N)cnc2cc1OCCCN1CCN(CC)CC1 [Example 11, 4-[(2,4-Dichloro-5-methoxyphenyl)amino]-6-ethoxy-7-[3-(4-ethylpiperazin-1-yl)propoxy]quinoline-3-carbonitrile], the IC50 [8] is reported as 0.85 nM, the IC50 [1] is reported as 160 nM and the melting point is reported as 127 to 130 °C.
CCOc1cc2c(Nc3cc(OC)c(Cl)cc3Cl)c(C#N)cnc2cc1OCCCC1CCN(C)CC1 [Example 12, 4-[(2,4-Dichloro-5-methoxyphenyl)amino]-6-ethoxy-7-[3-(1-methylpiperidin-4-yl)propoxy]quinoline-3-carbonitrile] showed an IC50 [8] of 1.4 nM, an IC50 [1] of 96 nM and a melting point of 148 to 151 °C.
In the case of CCOc1cc2c(Nc3cc(OC)c(Cl)cc3Cl)c(C#N)cnc2cc1OCCN1CCN(C)CC1 [Example 13, 4-[(2,4-Dichloro-5-methoxyphenyl)amino]-6-ethoxy-7-[2-(4-methyl-1-piperazinyl)ethoxy]quinoline-3-carbonitrile], the IC50 [8] is reported as 1.5 nM, the IC50 [1] is reported as 146 nM and the melting point is reported as 141 to 143 °C.
CCOc1cc2c(Nc3cc(OC)c(Cl)cc3Cl)c(C#N)cnc2cc1OCCC1CCN(C)CC1 [Example 14, 4-[(2,4-Dichloro-5-methoxyphenyl)amino]-6-ethoxy-7-[2-(1-methylpiperidin-4-yl)ethoxy]quinoline-3-carbonitrile] gave an IC50 [8] of 1.9 nM, an IC50 [1] of 267 nM and a melting point of 174 to 176 °C.
In the case of CCCN1CCN(CCCOc2cc3ncc(C#N)c(Nc4cc(OC)c(Cl)cc4Cl)c3cc2OC)CC1 [Example 15, 4-[(2,4-Dichloro-5-methoxyphenyl)amino]-6-methoxy-7-[3-(4-propyl-1-piperazinyl)propoxy]-3-quinolinecarbonitrile], the IC50 [1] is reported as 160 nM.
